Measurements reported in publication PMC7789354 (BMC Gastroenterology, 2021).

Key:
[1] = tested on: proximal jejunum; assay: In situ jejunal perfusion, OCT absorption into portal vein blood; assay type: in vivo, rat; conditions: for AUC, % of the correspondent control group (Group A1): PH rats; for AUC, % of the correspondent control group (Group A1) / AUC, % of the correspondent control (Group A; OCT only): portal vein blood 5-60 min; for AUC, % of the correspondent control (Group A; OCT only): healthy rats
Protocol: The experimental procedure was performed as previously reported. Briefly, the mean length of the proximal jejunum (approximately 2 cm distal to the ligament of Treitz) was 10 ± 1 cm. An oxygenated Krebs–Ringer bicarbonate buffer (KRB) solution (pH 7.4) containing 0.5 mM MgCl2, 4.5 mM KCl, 120 mM NaCl, 0.7 mM Na2HPO4, 1.5 mM NaH2PO4, 1.2 mM CaCl2, 15 mM NaHCO3, and 10 mM glucose was perfused at a flow rate of 0.4 mL/min using a peristaltic pump through an inlet tube kept at 37 °C. […] The AUC was calculated using the integral method. These experiments were performed both in healthy and PH rats; the latter was called Group A1, B1, C1, and D1 (n = 4 per group).
(§1) Frozen samples were thawed at room temperature prior to their preparation. A 200-µL aliquot of cell lysate containing 1 mL Tris, 99 mL D-Hank’s, and 200 µL methyl cyanide was mixed with the sample obtained from Caco-2 experiments. The mixture was then vortexed for 1 min and centrifuged at 12,000×g for 10 min. The supernatant was transferred to a clean glass tube and evaporated to dryness at 40 °C under nitrogen. A 10-μL aliquot was injected for LC − MS/MS analysis. A total of 200 μL methanol was added to a 50-μL sample of plasma, and the mixture was vortexed and centrifuged as described above to remove precipitated proteins. A total of 200 μL supernatant was transferred and evaporated as described for the Caco-2 samples. The residue was then diluted with 100 μL mobile phase and an aliquot of 10 μL was used for LC − MS/MS analysis.
(§2) Isocratic chromatographic separation was performed using a Hypersil BDS-C18 column (150 mm × 4.6 mm i.d., 5 µm; Dalian Elite Analytical Instruments Co. Ltd., China) maintained at room temperature. A mixture of 40% methanol-60% water with 0.1% formic acid (60:40, v/v) was used as the mobile phase at a flow rate of 0.5 mL/min. An API 3200 triple-quadrupole mass spectrometer (Applied Biosystems, Concord, Ontario, Canada) was operated with a Turbo Ionspray interface in positive ion mode. The ion spray voltage was set to + […], heater gas temperature to 500 °C, nebulizer gas (Gas 1) at 40 psi, heater gas (Gas 2) at 40 psi, curtain gas at 10 psi, and collision gas at 16 psi.

[2] = tested on: jejunum everted sac; assay: In vitro everted intestinal sac preparation, OCT uptake; assay type: in vitro ADME, rat; conditions: for AUC, % of the correspondent control group (Group A1): PH rats; for AUC, % of the correspondent control group (Group A1) / AUC, % of the correspondent control group (Group A): sac lumen 10-120 min; for AUC, % of the correspondent control group (Group A): healthy rats
Protocol: Rat jejunum (10 ± 1 cm) was transected approximately 2 cm distal to the ligament of Treitz. […] The AUC was calculated using the trapezoid method. These experiments were performed in both control and PH rats; the latter was called Group A1, B1, C1, and D1 (n = 4 per group).
as §2

[3] = Bi-directional Caco-2 permeability (transport) assay; assay type: in vitro ADME, human
Protocol: (§3) Caco-2 cells (purchased from the Type Culture Collection of the Chinese Academy of Sciences, Shanghai, China) at passage 30 to 33 were used in this study. Cells were routinely cultured as previously described with minor modifications. Cells were seeded onto Transwell inserts in 12-well dishes at a density of 5 × 10^5 cells/well (#3401; 0.4 µm pore size, growth area of 1.13 cm^2, Corning, NY, USA), and the medium was replaced with D-Hanks solution every other day except for the treatment days.
Cell monolayer integrity was evaluated through the transepithelial electrical resistance (TEER) using a Millicell ERS resistance system (Millipore, Bedford, MA, USA) at 37 °C. Each TEER value was corrected for background resistance determined on an extracellular matrix-coated cell culture insert without cells.
Caco-2 transport study was performed as previously described. […] A to B assay was performed to determine the extent of OCT absorption, while B to A assay was performed to measure OCT secretion. As regard A to B assay, the apical (upper) chamber was filled with 1.6 mL test drug solution in HBSS, while the receiver basolateral (lower) compartment was filled with 0.6 mL HBSS alone. Conversely, in B to A assay the upper and lower chambers were filled with 0.6 mL HBSS and 1.6 mL test drug, respectively. […] The TEER value was determined at different incubation times to verify the integrity of the monolayer after buffer change. […] The permeability direction rate (PDR) was calculated by the ratio of Papp in the B to A direction versus that in the A to B direction, as follows: PDR=Papp(BtoA)/Papp(AtoB)
as §1, §2

[4] = tested on: Caco-2 cells; assay type: cell-based, human; conditions: OCT concentrations of 1, 10, and 50 µM; data not shown
Protocol: as §3

[5] = tested on: CYP3A; assay: OCT metabolism by CYP3A in rat intestinal microsomes; assay type: in vitro ADME
Protocol: Microsomes from the small intestine of healthy rats and PH rats were obtained as previously described, and their protein concentration (0.53 ± 0.05 mg/mL and 0.52 ± 0.06 mg/mL total protein, respectively) was measured using the BCA method (Beijing Solarbio Science & Technology Co., Ltd). […] CYP3A activity was measured using a fluorescent quantitative detection kit (Genmed Scientifics Inc., U.S.A.) with the NADPH regenerating system after pre-incubation at 37 °C for 0, 2, 10, 20 or 30 min. […] The organic phase was evaporated to dryness and the OCT content in the residue was measured by LC–MS/MS.
Each sample was tested 3 times.
as §2

[6] = biological target: T1, recombinant human CYP3A4 (Homo sapiens, UniProt P08684); assay: OCT metabolism by recombinant human cytochrome P450 3A4; assay type: in vitro ADME; conditions: 10 min incubation, CYP3A4 2.5 mg/mL, NADPH; many different metabolites by LC–MS/MS
T1 construct: purchased BD Gentest (Supersomes)
T1 sequence (P08684 whole entry): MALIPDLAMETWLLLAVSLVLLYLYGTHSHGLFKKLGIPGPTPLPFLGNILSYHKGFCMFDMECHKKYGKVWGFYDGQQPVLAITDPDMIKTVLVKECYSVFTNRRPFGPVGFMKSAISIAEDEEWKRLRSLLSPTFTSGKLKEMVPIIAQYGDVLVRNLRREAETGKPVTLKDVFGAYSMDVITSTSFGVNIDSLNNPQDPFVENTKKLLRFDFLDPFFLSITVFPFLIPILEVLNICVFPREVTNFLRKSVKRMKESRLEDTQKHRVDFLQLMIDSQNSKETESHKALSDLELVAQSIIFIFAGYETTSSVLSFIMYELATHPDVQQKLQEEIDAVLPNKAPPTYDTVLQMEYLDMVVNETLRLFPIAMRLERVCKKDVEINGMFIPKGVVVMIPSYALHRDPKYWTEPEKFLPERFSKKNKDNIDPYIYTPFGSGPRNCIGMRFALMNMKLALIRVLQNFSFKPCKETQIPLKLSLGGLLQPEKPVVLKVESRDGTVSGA
Protocol: All incubations were performed at 37 °C in a water bath. Recombinant human cDNA-expressing P450 isozyme 3A4 (BD Gentest Supersomes) was carefully thawed on ice prior to each experiment. […] […] Control samples without NADPH and samples without OCT were also included. […] Each sample was tested 4 times.
as §2

[7] = biological target: T1, recombinant human CYP3A4; assay: CYP3A4 activity with and without OCT incubation (fluorescent quantitative detection kit); assay type: biochemical; conditions: OCT 400 mM
Protocol: All incubations were performed at 37 °C in a water bath. Recombinant human cDNA-expressing P450 isozyme 3A4 (BD Gentest Supersomes) was carefully thawed on ice prior to each experiment. […] After a 5-min pre-incubation at 37 °C, the reaction was started by the addition of NADPH and ended 30 min later by the addition of 500 µL methanol. Control samples without NADPH and samples without OCT were also included. […] Each sample was tested 4 times.

[8] = 10 µM OCT alone, PH rats versus healthy rats
[9] = 10 µM OCT plus 1 mM probenecid (Group C1)
[10] = 10 µM OCT plus 1 mM verapamil hydrochloride (Group B1)
[11] = 10 µM OCT plus 1 mM verapamil hydrochloride plus 1 mM probenecid (Group D1)
[12] = 10 µM OCT plus 1 mM probenecid (Group C)
[13] = 10 µM OCT plus 1 mM verapamil hydrochloride (Group B)
[14] = 10 µM OCT plus 1 mM verapamil hydrochloride plus 1 mM probenecid (Group D)
[15] = Caco-2, OCT 1 μM, Control (no inhibitor)
[16] = Caco-2, OCT 1 μM, MRP2 and P-gp inhibition
[17] = Caco-2, OCT 1 μM, MRP2 inhibition (probenecid 1 mM)
[18] = Caco-2, OCT 1 μM, P-gp inhibition (rhodamine 123 1 mM)
[19] = Caco-2, OCT 10 μM, Control (no inhibitor)
[20] = Caco-2, OCT 10 μM, MRP2 and P-gp inhibition
[21] = Caco-2, OCT 10 μM, MRP2 inhibition (probenecid 1 mM)
[22] = Caco-2, OCT 10 μM, P-gp inhibition (rhodamine 123 1 mM)
[23] = Caco-2, OCT 50 μM, Control (no inhibitor)
[24] = Caco-2, OCT 50 μM, MRP2 and P-gp inhibition
[25] = Caco-2, OCT 50 μM, MRP2 inhibition (probenecid 1 mM)
[26] = Caco-2, OCT 50 μM, P-gp inhibition (rhodamine 123 1 mM)

C[C@@H](O)[C@@H]1NC(=O)[C@H](CCCCN)NC(=O)[C@@H](Cc2c[nH]c3ccccc23)NC(=O)[C@H](Cc2ccccc2)NC(=O)[C@@H](NC(=O)[C@H](N)Cc2ccccc2)CSSC[C@@H](C(=O)N[C@H](CO)[C@@H](C)O)NC1=O [OCT, octreotide]
AUC of group A1 as % of group A [1, 8]: 96% | AUC, % of the correspondent control group (Group A1) [1, 9]: 236.28% | AUC, % of the correspondent control group (Group A1) [1, 10]: 384.61% | AUC, % of the correspondent control group (Group A1) [1, 11]: 461.78% | AUC, % of the correspondent control (Group A; OCT only) [1, 12]: 418.95% | AUC, % of the correspondent control (Group A; OCT only) [1, 13]: 521.08% | AUC, % of the correspondent control (Group A; OCT only) [1, 14]: 618.40% | AUC of group A1 as % of group A [2, 8]: 21.54% | AUC, % of the correspondent control group (Group A1) [2, 9]: 128.23% | AUC, % of the correspondent control group (Group A1) [2, 10]: 151.82% | AUC, % of the correspondent control group (Group A1) [2, 11]: 165.33% | AUC, % of the correspondent control group (Group A) [2, 12]: 151.39% | AUC, % of the correspondent control group (Group A) [2, 13]: 176.22% | AUC, % of the correspondent control group (Group A) [2, 14]: 220.63% | Papp A→B [3, 15]: 0.005 ± 0.001 ×10⁻⁶ cm/s | Papp B→A [3, 15]: 0.021 ± 0.003 ×10⁻⁶ cm/s | Papp A→B [3, 16]: 0.022 ± 0.002 ×10⁻⁶ cm/s | Papp B→A [3, 16]: 0.006 ± 0.001 ×10⁻⁶ cm/s | Papp A→B [3, 17]: 0.007 ± 0.001 ×10⁻⁶ cm/s | Papp B→A [3, 17]: 0.006 ± 0.001 ×10⁻⁶ cm/s | Papp A→B [3, 18]: 0.01 ± 0.001 ×10⁻⁶ cm/s | Papp B→A [3, 18]: 0.012 ± 0.002 ×10⁻⁶ cm/s | Papp A→B [3, 19]: 0.127 ± 0.015 ×10⁻⁶ cm/s | Papp B→A [3, 19]: 0.565 ± 0.073 ×10⁻⁶ cm/s | Papp A→B [3, 20]: 0.368 ± 0.055 ×10⁻⁶ cm/s | Papp B→A [3, 20]: 0.193 ± 0.021 ×10⁻⁶ cm/s | Papp A→B [3, 21]: 0.149 ± 0.016 ×10⁻⁶ cm/s | Papp B→A [3, 21]: 0.31 ± 0.025 ×10⁻⁶ cm/s | Papp A→B [3, 22]: 0.168 ± 0.018 ×10⁻⁶ cm/s | Papp B→A [3, 22]: 0.297 ± 0.024 ×10⁻⁶ cm/s | Papp A→B [3, 23]: 0.23 ± 0.021 ×10⁻⁶ cm/s | Papp B→A [3, 23]: 1.33 ± 0.16 ×10⁻⁶ cm/s | Papp A→B [3, 24]: 1.73 ± 0.138 ×10⁻⁶ cm/s | Papp B→A [3, 24]: 0.981 ± 0.082 ×10⁻⁶ cm/s | Papp A→B [3, 25]: 0.353 ± 0.032 ×10⁻⁶ cm/s | Papp B→A [3, 25]: 1.13 ± 0.097 ×10⁻⁶ cm/s | Papp A→B [3, 26]: 1.19 ± 0.072 ×10⁻⁶ cm/s | Papp B→A [3, 26]: 1.04 ± 0.084 ×10⁻⁶ cm/s | Caco-2 cell death (LDH-cytotoxicity assay) [4]: No sign of Caco-2 cell death | OCT level, PH + OCT group versus N + OCT group ([5]; intestinal microsomes of PH versus healthy rats, OCT 1000 ng/mL, 37 °C, p < 0.05): significantly lower | OCT level in the presence of the CYP3A inhibitor ketoconazole ([5]; intestinal microsomes of healthy and PH rats, OCT 1000 ng/mL, ketoconazole 10 µM, p < 0.01): significantly and equally increased | Metabolism of OCT by CYP3A ([5]; rat intestinal microsomes, NADPH-generating system): metabolized by CYP3A | Metabolism of OCT by recombinant human CYP3A4 [6]: CYP3A4 metabolized OCT | Change in activity of recombinant human CYP3A4 after pre-incubation with OCT [7]: No changes
